Reference: ChEMBL document CHEMBL3526037, “Evaluation of the relationship between sex, polymorphisms in CYP2C8 and CYP2C9, and pharmacokinetics of angiotensin receptor blockers” (Drug Metab Dispos, 2013)

Tests used:
[1] = AUC in human plasma expressing CYP2C8*1/*1 polymorphism at 50 mg by LC/MS/MS analysis; type: ADME, organism-based
[2] = Cmax in human plasma expressing CYP2C8*1/*1 polymorphism at 50 mg by LC/MS/MS analysis; type: ADME, organism-based; set-up: dose 50 mg
[3] = Half life in human plasma expressing CYP2C8*1/*1 polymorphism at 50 mg by LC/MS/MS analysis
[4] = Tmax in human plasma expressing CYP2C8*1/*1 polymorphism at 50 mg by LC/MS/MS analysis; type: ADME, organism-based
[5] = Clearance in human plasma expressing CYP2C8*1/*1 polymorphism at 50 mg by LC/MS/MS analysis; type: ADME, organism-based
[6] = AUC in human plasma expressing CYP2C8*3 allele carrier polymorphism at 50 mg by LC/MS/MS analysis; type: ADME, organism-based
[7] = Cmax in human plasma expressing CYP2C8*3 allele carrier polymorphism at 50 mg by LC/MS/MS analysis; type: ADME, organism-based; set-up: dose 50 mg
[8] = Half life in human plasma expressing CYP2C8*3 allele carrier polymorphism at 50 mg by LC/MS/MS analysis
[9] = Tmax in human plasma expressing CYP2C8*3 allele carrier polymorphism at 50 mg by LC/MS/MS analysis; type: ADME, organism-based
[10] = Clearance in human plasma expressing CYP2C8*3 allele carrier polymorphism at 50 mg by LC/MS/MS analysis; type: ADME, organism-based
[11] = AUC in human plasma expressing CYP2C8*4 allele carrier polymorphism at 50 mg by LC/MS/MS analysis; type: ADME, organism-based
[12] = Cmax in human plasma expressing CYP2C8*4 allele carrier polymorphism at 50 mg by LC/MS/MS analysis; type: ADME, organism-based; set-up: dose 50 mg
[13] = Half life in human plasma expressing CYP2C8*4 allele carrier polymorphism at 50 mg by LC/MS/MS analysis
[14] = Tmax in human plasma expressing CYP2C8*4 allele carrier polymorphism at 50 mg by LC/MS/MS analysis; type: ADME, organism-based
[15] = Clearance in human plasma expressing CYP2C8*4 allele carrier polymorphism at 50 mg by LC/MS/MS analysis; type: ADME, organism-based
[16] = AUC in human plasma expressing CYP2C9*1/*1 polymorphism at 50 mg by LC/MS/MS analysis; type: ADME, organism-based
[17] = Cmax in human plasma expressing CYP2C9*1/*1 polymorphism at 50 mg by LC/MS/MS analysis; type: ADME, organism-based; set-up: dose 50 mg
[18] = Half life in human plasma expressing CYP2C9*1/*1 polymorphism at 50 mg by LC/MS/MS analysis
[19] = Tmax in human plasma expressing CYP2C9*1/*1 polymorphism at 50 mg by LC/MS/MS analysis; type: ADME, organism-based
[20] = Clearance in human plasma expressing CYP2C9*1/*1 polymorphism at 50 mg by LC/MS/MS analysis; type: ADME, organism-based
[21] = AUC in human plasma expressing CYP2C9*2 allele carrier polymorphism at 50 mg by LC/MS/MS analysis; type: ADME, organism-based
[22] = Half life in human plasma expressing CYP2C9*2 allele carrier polymorphism at 50 mg by LC/MS/MS analysis
[23] = Tmax in human plasma expressing CYP2C9*2 allele carrier polymorphism at 50 mg by LC/MS/MS analysis; type: ADME, organism-based
[24] = Clearance in human plasma expressing CYP2C9*2 allele carrier polymorphism at 50 mg by LC/MS/MS analysis; type: ADME, organism-based
[25] = AUC in human plasma expressing CYP2C9*3 allele carrier polymorphism at 50 mg by LC/MS/MS analysis; type: ADME, organism-based
[26] = Half life in human plasma expressing CYP2C9*3 allele carrier polymorphism at 50 mg by LC/MS/MS analysis
[27] = Tmax in human plasma expressing CYP2C9*3 allele carrier polymorphism at 50 mg by LC/MS/MS analysis; type: ADME, organism-based
[28] = Clearance in human plasma expressing CYP2C9*3 allele carrier polymorphism at 50 mg by LC/MS/MS analysis; type: ADME, organism-based
[29] = Clearance in men plasma at 50 mg by LC/MS/MS analysis; type: ADME, organism-based; details: male, human
[30] = Clearance in women plasma at 50 mg by LC/MS/MS analysis; type: ADME, organism-based; details: female, human
[31] = AUC in men plasma at 50 mg by LC/MS/MS analysis; type: ADME, organism-based; details: male, human
[32] = AUC in women plasma at 50 mg by LC/MS/MS analysis; type: ADME, organism-based; details: female, human
[33] = Cmax in men plasma at 50 mg by LC/MS/MS analysis; type: ADME, organism-based; set-up: dose 50 mg; details: male, human
[34] = Half life in men plasma at 50 mg by LC/MS/MS analysis; details: male, human
[35] = Half life in women plasma at 50 mg by LC/MS/MS analysis; details: female, human
[36] = Tmax in men plasma at 50 mg by LC/MS/MS analysis; type: ADME, organism-based; details: male, human
[37] = Tmax in women plasma at 50 mg by LC/MS/MS analysis; type: ADME, organism-based; details: female, human

CCCCc1nc(Cl)c(CO)n1Cc1ccc(-c2ccccc2-c2nn[nH]n2)cc1 [LOSARTAN] gave an AUC [1] of 0.504 µg·h/mL, a Cmax [2] of 0.263 µg/mL and a half-life [3] of 2.3 h. The Tmax [4] was 1.3 h, the clearance [5] was 1.7 L/h/kg and the AUC [6] was 0.413 µg·h/mL. The Cmax [7] was 0.231 µg/mL, the half-life [8] was 2.5 h and the Tmax [9] was 1 h. For the same compound, the clearance [10] was 1.9 L/h/kg, the AUC [11] was 0.494 µg·h/mL and the Cmax [12] was 0.345 µg/mL. The half-life [13] was 2.7 h, the Tmax [14] was 0.9 h and the clearance [15] was 1.6 L/h/kg. For the same compound, the AUC [16] was 0.473 µg·h/mL, the Cmax [17] was 0.258 µg/mL and the half-life [18] was 2.3 h. The Tmax [19] was 1.3 h, the clearance [20] was 1.8 L/h/kg and the AUC [21] was 0.366 µg·h/mL. For the same compound, the half-life [22] was 2.4 h, the Tmax [23] was 1.1 h and the clearance [24] was 1.9 L/h/kg. For the same compound, the AUC [25] was 0.637 µg·h/mL, the half-life [26] was 3.1 h and the Tmax [27] was 1 h. It also gave a clearance [28] of 1.3 L/h/kg, a clearance [29] of 1.66 L/h/kg and a clearance [30] of 1.82 L/h/kg. For the same compound, the AUC [31] was 0.455 µg·h/mL, the AUC [32] was 0.519 µg·h/mL and the Cmax [33] was 0.234 µg/mL. For the same compound, the half-life [34] was 2.5 h, the half-life [35] was 2.4 h and the Tmax [36] was 1.2 h. For the same compound, the Tmax [37] was 1.2 h.
